Tests used:
[1] = molecular target: T1, HCV NS3/4A protease complex (BMS strain, genotype 1a) (Hepatitis C virus genotype 1a, UniProt P27958, C1454S); test: Recombinant HCV NS3/4A protease complex FRET peptide assay, BMS strain; format: biochemical; conditions: IC50 range, NS3/4A BMS Strain
T1 construct: DNA encoding the recombinant HCV NS3/4A protease complex (amino acids 1027 to 1711) for these strains; inferred from the pET21b vector and Ni-NTA purification; made in house; host or cells: Escherichia coli BL21 (DE3), pET21b
T1 sequence (P27958 1658-1714, looked up, stated change not applied): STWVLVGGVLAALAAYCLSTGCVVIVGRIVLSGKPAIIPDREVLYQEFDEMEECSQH
T1 sequence (P27958 1027-1657, looked up, stated change not applied): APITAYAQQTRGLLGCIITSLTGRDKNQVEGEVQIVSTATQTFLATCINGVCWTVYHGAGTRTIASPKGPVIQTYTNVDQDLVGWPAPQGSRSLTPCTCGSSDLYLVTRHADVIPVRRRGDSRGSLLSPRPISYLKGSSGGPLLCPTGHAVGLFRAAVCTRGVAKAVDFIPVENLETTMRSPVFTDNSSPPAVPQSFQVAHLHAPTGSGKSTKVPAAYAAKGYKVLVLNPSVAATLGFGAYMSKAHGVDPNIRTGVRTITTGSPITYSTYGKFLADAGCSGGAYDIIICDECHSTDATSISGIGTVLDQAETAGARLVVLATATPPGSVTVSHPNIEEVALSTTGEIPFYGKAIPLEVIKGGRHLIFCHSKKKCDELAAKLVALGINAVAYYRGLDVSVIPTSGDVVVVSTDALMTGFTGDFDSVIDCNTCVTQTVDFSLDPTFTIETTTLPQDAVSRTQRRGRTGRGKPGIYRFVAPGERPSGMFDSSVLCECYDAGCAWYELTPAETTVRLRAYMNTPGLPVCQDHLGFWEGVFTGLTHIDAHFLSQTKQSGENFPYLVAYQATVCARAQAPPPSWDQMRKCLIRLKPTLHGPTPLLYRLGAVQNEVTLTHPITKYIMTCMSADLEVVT
Description: The purpose of this in vitro assay was to measure the inhibition of HCV NS3 protease complexes, derived from the BMS, H77C or J416S strains, as described below, by compounds of the present invention.
Serum from an HCV-infected patient was obtained from Dr. T. Wright, San Francisco Hospital. An engineered full-length cDNA (compliment deoxyribonucleic acid) template of the HCV genome (BMS strain) was constructed from DNA fragments obtained by reverse transcription-PCR (RT-PCR) of serum RNA (ribonucleic acid) and using primers selected on the basis of homology between other genotype 1a strains. […] The infectious clones, H77C (1a genotype) and J4L6S (1b genotype) were obtained from R. Purcell (NIH) and the sequences are published in Genbank (AAB67036, see Yanagi,M., Purcell,R. H., Emerson,S. U. and Bukh,J. Proc. Natl. Acad. Sci. U.S.A. 94(16),8738-8743 (1997); AF054247, see Yanagi,M., St Claire,M., Shapiro,M., Emerson,S. U., Purcell,R. H. and Bukh,J, Virology 244 (1), 161-172. (1998)).
The BMS, H77C and J4L6S strains were used for production of recombinant NS3/4A protease complexes. DNA encoding the recombinant HCV NS3/4A protease complex (amino acids 1027 to 1711) for these strains were manipulated as described by P. Gallinari et al. (see Gallinari P, Paolini C, Brennan D, Nardi C, Steinkuhler C, De Francesco R. Biochemistry. 38(17):5620-32, (1999)). Briefly, a three-lysine solubilizing tail was added at the 3′-end of the NS4A coding region. The cysteine in the P1 position of the NS4A-NS4B cleavage site (amino acid 1711) was changed to a glycine to avoid the proteolytic cleavage of the lysine tag. Furthermore, a cysteine to serine mutation was introduced by PCR at amino acid position 1454 to prevent the autolytic cleavage in the NS3 helicase domain. The variant DNA fragment was cloned in the pET21b bacterial expression vector (Novagen) and the NS3/4A complex was expressed in Escherichia. coli strain BL21 (DE3) (Invitrogen) following the protocol described by P. Gallinari et al. (see Gallinari P, Brennan D, Nardi C, Brunetti M, Tomei L, Steinkuhler C, De Francesco R., J. Virol. 72(8):6758-69 (1998)) with modifications. Briefly, NS3/4A expression was induced with 0.5 mM Isopropyl β-D-1-thiogalactopyranoside (IPTG) for 22 hr at 20° C. […] The cells were resuspended in lysis buffer (10 mL/g) consisting of 25 mM N-(2-Hydroxyethyl)Piperazine-N′-(2-Ethane Sulfonic acid) (HEPES), pH 7.5, 20% glycerol, 500 mM Sodium Chloride (NaCl), 0.5% Triton-X100, 1 ug/ml lysozyme, 5 mM Magnesium Chloride (MgCl2), 1 ug/ml DnaseI, 5 mM β-Mercaptoethanol (βME), Protease inhibitor—Ethylenediamine Tetraacetic acid (EDTA) free (Roche), homogenized and incubated for 20 mins at 4° C. The homogenate was sonicated and clarified by ultra-centrifugation at 235000 g for 1 hr at 4° C. Imidazole was added to the supernatant to a final concentration of 15 mM and the pH adjusted to 8.0. The crude protein extract was loaded on a Nickel-Nitrilotriacetic acid (Ni-NTA) column pre-equilibrated with buffer B (25 mM HEPES, pH 8.0, 20% glycerol, 500 mM NaCl, 0.5% Triton-X100, 15 mM imidazole, 5 mM βME). The sample was loaded at a flow rate of 1 mL/min. The column was washed with 15 column volumes of buffer C (same as buffer B except with 0.2% Triton-X100). The protein was eluted with 5 column volumes of buffer D (same as buffer C except with 200 mM Imidazole).
NS3/4A protease complex-containing fractions were pooled and loaded on a desalting column Superdex-S200 pre-equilibrated with buffer D (25 mM HEPES, pH7.5, 20% glycerol, 300 mM NaCl, 0.2% Triton-X100, 10 mM βME).

[2] = system: HCV replicon in Huh7 cells; test: HCV replicon cell-based assay (FRET); conditions: Hepatitis C virus, Huh-7; HCV replicon; read-out: EC50 range
Description: An HCV replicon whole cell system was established as described by Lohmann V, Korner F, Koch J, Herian U, Theilmann L, Bartenschlager R., Science 285(5424):110-3 (1999). This system enabled us to evaluate the effects of our HCV Protease compounds on HCV RNA replication. Briefly, using the HCV strain 1B sequence described in the Lohmann paper (Assession number: AJ238799), an HCV cDNA was generated encoding the 5′ internal ribosome entry site (IRES), the neomycin resistance gene, the EMCV (encephalomyocarditis viurs)-IRES and the HCV nonstructural proteins, NS3-NS5B, and 3′ non-translated region (NTR). In vitro transcripts of the cDNA were transfected into the human hepatoma cell line, Huh7. […] Resulting cell lines were characterized for positive and negative strand RNA production and protein production over time.
Huh7 cells, constitutively expressing the HCV replicon, were grown in Dulbecco's Modified Eagle Media (DMEM) containing 10% Fetal calf serum (FCS) and 1 mg/ml G418 (Gibco-BRL). Cells were seeded the night before (1.5×10^4 cells/well) in 96-well tissue-culture sterile plates. Compound and no compound controls were prepared in DMEM containing 4% FCS, 1:100 Penicillin/Streptomysin, 1:100 L-glutamine and 5% DMSO in the dilution plate (0.5% DMSO final concentration in the assay). Compound/DMSO mixes were added to the cells and incubated for 4 days at 37° C. After 4 days, plates were rinsed thoroughly with Phosphate-Buffered Saline (PBS) (3 times 150 μl). The cells were lysed with 25 μl of a lysis assay reagent containing the FRET peptide (RET S1, as described for the in vitro enzyme assay). The lysis assay reagent was made from 5× cell Luciferase cell culture lysis reagent(Promega #E153A) diluted to 1× with distilled water, NaCl added to 150 mM final, the FRET peptide diluted to 10 μM final from a 2 mM stock in 100% DMSO. The plate was then placed into the Cytofluor 4000 instrument which had been set to 340 nm excitation/490 emission, automatic mode for 21 cycles and the plate read in a kinetic mode. EC50 determinations were carried out as described for the IC50 determinations.

| Structure (SMILES) | IC50 [1] [µM] | EC50 [2] [µM] |
| --- | --- | --- |
| C=C[C@@H]1C[C@]1(NC(=O)[C@@H]1C[C@@H](Oc2cc(-c3ccccc3)nc3cc(OC)ccc23)CN1C(=O)[C@@H](NC(=O)OC(C)(C)C)C(C)(C)C)C(=O)NS(=O)(=O)C1(CCCC)CC1 [Compound 30, {1-[2-[1-(1-Butyl-cyclopropanesulfonylaminocarbonyl)-2-vinyl-cyclopropylcarbamoyl]-4-(7-methoxy-2-phenyl-quinolin-4-yloxy)-pyrrolidine-1-carbonyl]-2,2-dimethyl-propyl}-carbamic acid tert-butyl ester] | < 0.05 | < 0.05 |
| C=C[C@@H]1C[C@]1(NC(=O)[C@@H]1C[C@@H](Oc2cc(-c3ccccc3)nc3cc(OC)ccc23)CN1C(=O)[C@@H](NC(=O)OC(C)(C)C)C(C)(C)C)C(=O)NS(=O)(=O)C1(CC2CCC2)CC1 [Compound 32, {1-[2-[1-(1-Cyclobutylmethyl-cyclopropanesulfonylaminocarbonyl)-2-vinyl-cyclopropylcarbamoyl]-4-(7-methoxy-2-phenyl-quinolin-4-yloxy)-pyrrolidine-1-carbonyl]-2,2-dimethyl-propyl}-carbamic acid tert-butyl ester] | < 0.05 | < 0.05 |
| C=C[C@@H]1C[C@]1(NC(=O)[C@@H]1C[C@@H](Oc2cc(-c3ccccc3)nc3cc(OC)ccc23)CN1C(=O)[C@@H](NC(=O)OC(C)(C)C)C(C)(C)C)C(=O)NS(=O)(=O)C1(CCC)CC1 [Compound 29, (1-{4-(7-Methoxy-2-phenyl-quinolin-4-yloxy)-2-[1-(1-propyl-cyclopropanesulfonylaminocarbonyl)-2-vinyl-cyclopropylcarbamoyl]-pyrrolidine-1-carbonyl}-2,2-dimethyl-propyl)-carbamic acid tert-butyl ester] | < 0.05 | < 0.05 |
| C=C[C@@H]1C[C@]1(NC(=O)[C@@H]1C[C@@H](Oc2cc(-c3ccccc3)nc3cc(OC)ccc23)CN1C(=O)[C@@H](NC(=O)Oc1ccccc1OC)C(C)(C)C)C(=O)NS(=O)(=O)C1(Cc2ccccc2)CC1 [Compound 107] | 0.05 to 0.5 | 0.5 to 5 |
| C=C[C@@H]1C[C@]1(NC(=O)[C@@H]1C[C@@H](Oc2cc(-c3ccccc3)nc3cc(OC)ccc23)CN1C(=O)[C@@H](NC(=O)OCC(C)(C)C)C(C)(C)C)C(=O)NS(=O)(=O)C1(Cc2ccccc2)CC1 [Compound 105] | < 0.05 | 0.05 to 0.5 |
| C=C[C@@H]1C[C@]1(NC(=O)[C@@H]1C[C@@H](Oc2cc(-c3ccccc3)nc3cc(OC)ccc23)CN1C(=O)[C@@H](NC(=O)OC(C)(C)C)C(C)(C)C)C(=O)NS(=O)(=O)C1(Cc2ccccn2)CC1 [Compound 48, (1-{4-(7-Methoxy-2-phenyl-quinolin-4-yloxy)-2-[1-(1-pyridin-2-ylmethyl-cyclopropanesulfonylaminocarbonyl)-2-vinyl-cyclopropylcarbamoyl]-pyrrolidine-1-carbonyl}-2,2-dimethyl-propyl)-carbamic acid tert-butyl ester] | < 0.05 | < 0.05 |
| C=C[C@@H]1C[C@]1(NC(=O)[C@@H]1C[C@@H](Oc2cc(-c3ccccc3)nc3cc(OC)ccc23)CN1C(=O)[C@@H](NC(=O)OC(C)(C)C)C(C)C)C(=O)NS(=O)(=O)C1(CCOC)CC1 [Compound 53, {1-[2-{1-[1-(2-Methoxy-ethyl)-cyclopropanesulfonylaminocarbonyl]-2-vinyl-cyclopropylcarbamoyl}-4-(7-methoxy-2-phenyl-quinolin-4-yloxy)-pyrrolidine-1-carbonyl]-2-methyl-propyl}-carbamic acid tert-butyl ester] | < 0.05 | < 0.05 |
| C=C[C@@H]1C[C@]1(NC(=O)[C@@H]1C[C@@H](Oc2cc(-c3ccccc3)nc3cc(OC)ccc23)CN1C(=O)[C@@H](NC(=O)OC(C)(C)C)C(C)(C)C)C(=O)NS(=O)(=O)C1(Cc2ccccc2F)CC1 [Compound 41, {1-[2-{1-[1-(2-Fluoro-benzyl)-cyclopropanesulfonylaminocarbonyl]-2-vinyl-cyclopropylcarbamoyl}-4-(7-methoxy-2-phenyl-quinolin-4-yloxy)-pyrrolidine-1-carbonyl]-2,2-dimethyl-propyl}-carbamic acid tert-butyl ester] | < 0.05 | 0.05 to 0.5 |
| C=C[C@@H]1C[C@]1(NC(=O)[C@@H]1C[C@@H](Oc2cc(-c3ccccc3)nc3cc(OC)ccc23)CN1C(=O)[C@@H](NC(=O)OCCF)C(C)(C)C)C(=O)NS(=O)(=O)C1(Cc2ccccc2)CC1 [Compound 106] | < 0.05 | 0.05 to 0.5 |
| C=C[C@@H]1C[C@]1(NC(=O)[C@@H]1C[C@@H](Oc2cc(-c3ccccc3)nc3cc(OC)ccc23)CN1C(=O)[C@@H](NC(=O)OC1CCCC1)C(C)(C)C)C(=O)NS(=O)(=O)C1(Cc2ccccc2)CC1 [Compound 55, {1-[2-[1-(1-Benzyl-cycloprolanesulfonylaminocarbonyl)-2-vinyl-cycloproylcarbamoyl]-4-(7-methoxy-2-phenyl-quinolin-4-yloxy)-pyrrolidine-1-carbonyl]-2,2-dimethyl-propyl}-carbamic acid cyclopentyl ester] | < 0.05 | 0.05 to 0.5 |
| COc1ccc2c(O[C@@H]3C[C@@H](C(=O)NC4(C(=O)NS(=O)(=O)C5(CC6CC6)CC5)CC45CC5)N(C(=O)[C@@H](NC(=O)OC(C)(C)C)C(C)(C)C)C3)cc(-c3ccccc3)nc2c1 (mixture of isomers) [Compound 202, {1-[2-[1-(1-Cyclopropylmethyl-cyclopropanesulfonylaminocarbonyl)-spiro[2.2]pent-1-ylcarbamoyl]-4-(7-methoxy-2-phenyl-quinolin-4-yloxy)-pyrrolidine-1-carbonyl]-2,2-dimethyl-propyl}-carbamic acid tert-butyl ester] | 0.05 to 0.5 | 0.5 to 5 |

Source: patent US6878722B2, “Substituted cycloalkyl P1′ hepatitis C virus inhibitors” (Bristol-Myers Squibb Company, priority 2002, dated 2005)
